Data on one compound can be found in EPA's ToxValDB 9.5 (doi:10.2903/j.efsa.2008.136r).

Converted amounts (≈) assume the structure as drawn.

One data set has as its system Anas platyrhynchos. Conditions: oral, mortality.
Another data set concerns Apis mellifera. The following applies: acute; duration: 48 hours; oral; unspecified; mortality.
In the next data set the test system is Canidae. Conditions: oral, Dog Other, organ weight.
In another data set the test system is Colinus virginianus. The following applies: acute, oral, mortality.
A further data set has as its system Coturnix japonica. The following applies: reproduction developmental.
A further data set deals with Daphnia magna. Conditions: chronic/long-term; duration: 21 days; reproduction.
For another data set, the system named is Oncorhynchus mykiss. Conditions: acute; duration: 96 hours; mortality.
The next data set deals with Pimephales promelas. The following applies: chronic/long-term; duration: 35 days; growth.
The test system of another data set is Typhlodromus pyri. Conditions: acute; duration: 7 days; mortality.

Take `Clc1ccc(C2(Cn3cncn3)CC(Br)CO2)c(Cl)c1` (stereo not drawn) [Bromuconazole]: the LD50 with Anas platyrhynchos (acute, unspecified) is over 2150 mg/kg-day; in the data set with Apis mellifera it was over 100 µg/piece; with Colinus virginianus, over 2150 mg/kg-day; in the data set with Rattus norvegicus (acute, F, mortality) it was 328 mg/kg-day. The LC50 with Anas platyrhynchos (short-term, feed) was over 684 mg/kg-day; with Colinus virginianus (diet), over 778 mg/kg-day; in the data set on Oncorhynchus mykiss, 1.7 mg/L (≈ 4.51 µM); with Tagia sp. (acute, duration: 14 days, mortality) it was over 1000 mg/kg. For the same compound, the NOAEL with Canidae (chronic, duration: 1 years) was determined as 2.5 mg/kg-day; with Canidae (subchronic, duration: 90 days) it was 2.5 mg/kg-day; in the data set with Rattus norvegicus (chronic, duration: 2 years, oral, diet, histopathology: nonneoplastic) it was 0.88 mg/kg-day; in the data set on Rattus norvegicus (developmental, development), 10 mg/kg-day. Besides, the NOEC in the data set on Coturnix japonica came to 26.5 mg/kg-day; in the data set with Daphnia magna, 0.02 mg/L; in the data set on Pimephales promelas, 0.065 mg/L; in the data set on Rattus norvegicus (reproduction developmental, reproduction) it was 1.3 mg/kg-day; in the data set on Tagia sp. (chronic/long-term, duration: 56 days), 37.2 mg/kg. Further, the LEL in the data set with Typhlodromus pyri was 260 g/ha.

For orientation: NOAEL means the highest tested level that showed no adverse finding.
